These results are taken from patent US20240262848A1, “HETEROCYCLIC COMPOUNDS, COMPOSITIONS THEREOF, AND METHODS OF TREATMENT THEREWITH” (BeiGene, Ltd., priority 2022, published 2024).

In assay [1] the target is GST-tagged GDP-loaded KRAS G12V (amino acids 1-169) (Homo sapiens, UniProt P01116, G12V). Put plainly: KRAS G12V probe displacement assay (TR-FRET). The format is binding. The following applies: Table 4; KRAS G12V 2 nM, biotinylated probe 2 2.5 nM. On the procedure: Plates are incubated at 24 °C for 1 hr. […] After 1 hr incubation at 24° C.
Sequence of GST-tagged GDP-loaded KRAS G12V (amino acids 1-169) (P01116 1-169 isoform P01116-2 G12V): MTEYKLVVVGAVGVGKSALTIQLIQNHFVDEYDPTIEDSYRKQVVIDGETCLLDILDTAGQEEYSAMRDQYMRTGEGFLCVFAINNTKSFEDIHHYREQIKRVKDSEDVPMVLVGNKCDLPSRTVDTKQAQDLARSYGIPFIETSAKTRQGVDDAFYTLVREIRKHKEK
On the technique in general: Time-resolved FRET reads energy transfer from a long-lived donor to a nearby acceptor.

In assay [2] the target is GST-tagged GDP-loaded KRAS G12D (amin acids 1-188) (Homo sapiens, UniProt P01116, G12D). Put plainly: KRAS G12D probe displacement assay (TR-FRET). The following applies: Table 5; KRAS G12D 0.5 nM, biotinylated probe 2 4 nM. The format is binding. On the procedure: Plates are incubated at 24° C. for 1 hr.
Sequence of GST-tagged GDP-loaded KRAS G12D (amin acids 1-188) (P01116 1-188 isoform P01116-2 G12D): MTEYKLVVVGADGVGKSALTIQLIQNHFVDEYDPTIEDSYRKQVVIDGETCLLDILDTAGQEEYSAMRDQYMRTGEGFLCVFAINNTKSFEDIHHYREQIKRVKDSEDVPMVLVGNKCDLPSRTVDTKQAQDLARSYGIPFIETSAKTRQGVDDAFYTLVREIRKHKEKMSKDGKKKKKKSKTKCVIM
The subject of assay [3] is pERK1/2(THR202/TYR204) level in AsPC-1 cell line. In words: KRAS G12D pERK assay in AsPC-1 cells (HTRF). The class given is cell-based. The following applies: Homo sapiens, ASPC1, Table 5, 2 h compound treatment. On the procedure: AsPC-1 cell line was used in this study. Cells were maintained in RPMI-1640 supplemented with 10% fetal bovine serum (Thermo Fisher), 50 units/ml, penicillin and streptomycin (Thermo Fisher) and kept at 37° C. in a humidified atmosphere of 5% CO2 in air. Cells were reinstated from frozen stocks that were laid down within 30 passages from the original cells purchased. 30000 cells per well were seeded into a 96-well plate and incubated overnight. Cells were treated with a 10-point dilution series. The final compound concentration is from 0 to 10 μM. After 2 h compound treatment, cells were lysed, and the pERK1/2(THR202/TYR204) level in the cell lysates was detected by HTRF kit (Cisbio). In brief, a total of 16 μL of cell lysate from each well of a 96-well plate was transferred to a 384-well white assay plate. Lysate from each well was incubated with 2 μL of Eu3+-cryptate (donor) labeled anti-phospho-ERK1/2 and 2 μL of D2 (acceptor) labeled anti-phospho-ERK1/2 antibodies (Cisbio) overnight in dark at room temperature. When the donor and acceptor are in close proximity, excitation of the donor with laser triggers a Fluorescence Resonance Energy Transfer (FRET) towards the acceptor, which in turn fluoresces at 655 nm wavelength. FRET signals were measured using a PHERAstar FSX reader (BMG Labtech). IC50 determination was performed by fitting the curve of percent inhibition versus the log of the inhibitor concentration using Dotmatics.

For assay [4], the system named is pERK1/2(THR202/TYR204) level in SW620 cell line. In words: KRAS G12V pERK assay in SW620 cells (HTRF). To be noted: Homo sapiens, SW-620, Table 4, 2 hrs compound treatment. The format is cell-based. An outline of the steps:
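SW620 cells were treated for 2 h with a 10-point dilution series (final 0–10 μM) after overnight seeding. Lysates were then incubated overnight at room temperature with Eu3+-cryptate and acceptor anti-phospho-ERK1/2 antibodies, and HTRF was read at 655 nm. IC50 was fitted from percent inhibition versus log concentration.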

Turning to `CN1c2nc(OC[C@@]34CCCN3C[C@H](F)C4)nc3c(F)c(-c4cc(N)cc(Cl)c4C(F)(F)F)nc(c23)O[C@H]2COCC[C@@H]21` [Example 49, 3-chloro-5-((7aR,11aS)-4-fluoro-2-(((2R,7aS)-2-fluorotetrahydro-1H-pyrrolizin-7a(5H)-yl)methoxy)-12-methyl-7a, 8,10,11,11a, 12-hexahydro-7,9-dioxa-1,3,6,12-tetraazapleiaden-5-yl)-4-(trifluoromethyl)aniline], the IC50 was 0.54 nM in assay [1], 0.27 nM in assay [2], 7.6 nM in assay [3] and 8.4 nM in assay [4].

As for `CN(C)CCN1c2nc(OC[C@@]34CCCN3C[C@H](F)C4)nc3c(F)c(-c4cc(N)cc(Cl)c4C(F)(F)F)nc(c23)OCC12CCC2` [Example 37, 3-chloro-5-(10′-(2-(dimethylamino)ethyl)-4′-fluoro-2′-(((2R,7aS)-2-fluorotetrahydro-1H-pyrrolizin-7a(5H)-yl)methoxy)-8′H, 10′H-7′-oxa-1′,3′,6′,10′-tetraazaspiro[cyclobutane-1,9′-cyclohepta[de]naphthalen]-1′(10a′), 2′,3a′, 3 al′(6a′), 5′-pentaen-5′-yl)-4-(trifluoromethyl)aniline], the IC50 in assay [2] is 2.3 nM; in assay [3] it was 639 nM.

For the molecule `CN1c2nc(OC[C@@]34CCCN3C[C@H](F)C4)nc3c(F)c(-c4cc(N)cc(Cl)c4C(F)(F)F)nc(c23)OC[C@@H]2COC[C@H]21` (single isomer, unassigned) [Example 68 Isomer 2], the IC50 in assay [1] is 0.51 nM; in assay [2], 0.14 nM; in assay [3] it was 6.9 nM; in assay [4], 1.4 nM.

For `C=C1CN2CCC[C@@]2(COc2nc3c4c(nc(-c5cc(N)cc(Cl)c5C(F)(F)F)c(F)c4n2)O[C@H]2COCC[C@@H]2N3C)C1` [Example 62, 3-chloro-5-((7aR,11aS)-4-fluoro-12-methyl-2-(((S)-2-methylenetetrahydro-1H-pyrrolizin-7a(5H)-yl)methoxy)-7a, 8,10,11,11a, 12-hexahydro-7,9-dioxa-1,3,6,12-tetraazapleiaden-5-yl)-4-(trifluoromethyl)aniline], the IC50 in assay [1] is 0.25 nM; in assay [2] it was 0.23 nM; in assay [3], 12 nM; in assay [4], 5.5 nM.

On to `CN(C)CCN1c2nc(OC[C@@]34CCCN3C[C@H](F)C4)nc3c(F)c(-c4cc(N)cc(Cl)c4C(F)(F)F)nc(c23)OCCC12COC2` [Example 44, 3-chloro-5-(11-(2-(dimethylamino)ethyl)-4-fluoro-2-(((2R,7aS)-2-fluorotetrahydro-1H-pyrrolizin-7a(5H)-yl)methoxy)-8,9-dihydro-11H-7-oxa-1,3,6,11-tetraazaspiro[cycloocta[de]naphthalene-10,3′-oxetan]-1(11a), 2,3a, 4,6-pentaen-5-yl)-4-(trifluoromethyl)aniline], for which the IC50 in assay [2] turned out to be 0.65 nM; in assay [3], 184 nM.

Turning to `CNCC(C)N1c2nc(OC[C@@]34CCCN3C[C@H](F)C4)nc3c(F)c(-c4cc(N)cc(Cl)c4C(F)(F)F)nc(c23)OCC12CCC2` (stereo partly drawn) [Example 38, 3-chloro-5-(4′-fluoro-2′-(((2R,7aS)-2-fluorotetrahydro-1H-pyrrolizin-7a(5H)-yl)methoxy)-10′-(1-(methylamino)propan-2-yl)-8′H, 10′H-7′-oxa-1′,3′,6′,10′-tetraazaspiro[cyclobutane-1,9′-cyclohepta[de]naphthalen]-1′(10a′), 2′,3a′, 3 al′(6a′), 5′-pentaen-5′-yl)-4-(trifluoromethyl)aniline], the values for the IC50 in assay [2] and in assay [3] were 0.38 nM and 102 nM, respectively.

For the molecule `CN1c2nc(OC[C@@]34CCCN3C[C@H](F)C4)nc3c(F)c(-c4cc(N)cc(Cl)c4C(F)(F)F)nc(c23)OCC2CNCC21` (stereo partly drawn) [Example 27, 3-chloro-5-(4-fluoro-2-(((2R,7aS)-2-fluorotetrahydro-1H-pyrrolizin-7a(5H)-yl)methoxy)-12-methyl-8a, 9,10,11,11a, 12-hexahydro-8H-7-oxa-1,3,6,10,12-pentaazacyclopenta[5,6]cycloocta[1,2,3-de]naphthalen-5-yl)-4-(trifluoromethyl)aniline], the IC50 in assay [2] came out at 0.95 nM; in assay [3], 836 nM.

As to `CNCCN1c2nc(OC[C@@]34CCCN3C[C@H](F)C4)nc3c(F)c(-c4cc(N)cc(Cl)c4C(F)(F)F)nc(c23)OCCC1C` (stereo partly drawn) [Example 20, 3-chloro-5-(4-fluoro-2-(((2R,7aS)-2-fluorotetrahydro-1H-pyrrolizin-7a(5H)-yl)methoxy)-10-methyl-11-(2-(methylamino)ethyl)-8,9,10,11-tetrahydro-7-oxa-1,3,6,11-tetraazacycloocta[de]naphthalen-5-yl)-4-(trifluoromethyl)aniline], the half-maximal inhibitory concentration (IC50) in assay [2] was found to be 0.43 nM; in assay [3], 1010 nM.

In the case of `CNCC(C)N1CCCOc2nc(-c3cc(N)cc(Cl)c3C(F)(F)F)c(F)c3nc(OC[C@@]45CCCN4C[C@H](F)C5)nc1c23` (stereo partly drawn) [Example 39, 3-chloro-5-(4-fluoro-2-(((2R,7aS)-2-fluorotetrahydro-1H-pyrrolizin-7a(5H)-yl)methoxy)-11-(1-(methylamino)propan-2-yl)-8,9,10,11-tetrahydro-7-oxa-1,3,6,11-tetraazacycloocta[de]naphthalen-5-yl)-4-(trifluoromethyl)aniline], the figures for the IC50 in assay [2] and in assay [3] were 3.9 nM and 1780 nM, respectively.

On to `CC(CN(C)C)N1CCCOc2nc(-c3cc(N)cc(Cl)c3C(F)(F)F)c(F)c3nc(OC[C@@]45CCCN4C[C@H](F)C5)nc1c23` (stereo partly drawn) [Example 40, 3-chloro-5-(11-(1-(dimethylamino)propan-2-yl)-4-fluoro-2-(((2R,7aS)-2-fluorotetrahydro-1H-pyrrolizin-7a(5H)-yl)methoxy)-8,9,10,11-tetrahydro-7-oxa-1,3,6,11-tetraazacycloocta[de]naphthalen-5-yl)-4-(trifluoromethyl)aniline], for which the IC50 in assay [2] worked out at 7.6 nM; in assay [3], 2000 nM.

Regarding `CNCCN1c2nc(OC[C@@]34CCCN3C[C@H](F)C4)nc3c(F)c(-c4cc(N)cc(Cl)c4C(F)(F)F)nc(c23)OCCC12CC2` [Example 42, 3-chloro-5-(4-fluoro-2-(((2R,7aS)-2-fluorotetrahydro-1H-pyrrolizin-7a(5H)-yl)methoxy)-11-(2-(methylamino)ethyl)-8,9-dihydro-11H-7-oxa-1,3,6,11-tetraazaspiro[cycloocta[de]naphthalene-10,1′-cyclopropan]-1(11a), 2,3a, 4,6-pentaen-5-yl)-4-(trifluoromethyl)aniline], the values for the 50% inhibitory concentration (IC50) in assay [2] and in assay [3] were 0.17 nM and 141 nM, respectively.

Regarding `CNCCN1c2nc(OC[C@@]34CCCN3C[C@H](F)C4)nc3c(F)c(-c4cc(N)cc(Cl)c4C(F)(F)F)nc(c23)OCC12CCC2` [Example 36, 3-chloro-5-(4′-fluoro-2′-(((2R,7aS)-2-fluorotetrahydro-1H-pyrrolizin-7a(5H)-yl)methoxy)-10′-(2-(methylamino)ethyl)-8′H, 10′H-7′-oxa-1′,3′,6′,10′-tetraazaspiro[cyclobutane-1,9′-cyclohepta[de]naphthalen]-1′(10a′), 2′0.3a′, 3 al′(6a′), 5′-pentaen-5′-yl)-4-(trifluoromethyl)aniline], the IC50 came to 1.1 nM in assay [2] and 2160 nM in assay [3].

Usually IC50 stands for the midpoint of a concentration-inhibition curve. A low value points to greater potency.
